# Experimental data taken from US20260248702A1, “Composition Comprising a UV-Filter Stabilizer” (Symrise AG, priority 2022, published 2026).
# Assay: Photostability test: E1%/cm absorbance measurement before and after irradiation with 5 MED
# Type: physicochemical
# Details: for Photostability result in words / Lost (%) after irradiation with 5 MED (1,250 J/m^2) / E max (nm): E1%/cm solution; for Lost (%) after irradiation with 5 MED (1,250 J/m^2): absorbance loss at E max; for E max (nm): wavelength of maximum absorbance; for loss of the photo-unstable UV-filter (absorbance loss), UV-filter alone versus in combination with the MAA compound: after irradiation with 5 MED, no wavelength given in the sentence; for photo-stabilizing effect in words: summary statements on the photostability test
# Method: The photostability of a UV-filter can be determined in vitro using absorbance measures, by which the loss in absorbance of the UV-filter before and after irradiation, for example with 5 MED, is measured. The loss in absorbance of the UV-filter goes along with the degradation of the UV-filter by one or more photochemical reactions, including photofragmentation, isomerization, tautomerization, photoaddition and the like. UV-filters with an absorbance loss≥20% after irradiation are classified as photo-unstable. Alternatively, the photostability of a UV-filter can be determined by analytical measures, that is by quantitative determination of the amount (i.e. concentration) by which the filter is degraded.
# UV-filters are usually tested for photostability to ensure that no degradation of the UV-filter itself or in combination with other substances takes place.
# The UV-filter stabilizing properties of mycosporine-like amino acid compounds were explored by comparing the behaviour of UV-filter alone relative to UV-filters in combination with a certain mycosporine-like amino acid compound.
# In the present case single photo-unstable UV-filters as well as formulations of photo-unstable filters with certain mycosporine-like amino acid compounds were subjected to photostability testing, described in detail below, to determine the retention of absorption of UVA and UVB radiation (full spectrum analysis) after exposing the sample to 5 MED (minimal erythema) dose (1 MED=250 J/m^2).
# Sample preparation: The substance or the formulation to be tested was dissolved in a suitable solvent. For this purpose, a certain amount of the substance or formulation was transferred by means of an analytical balance/pipette into a graduated flask and filled with the selected solvent. The filling up to the calibration mark of the graduated flask was carried out only after complete dissolution of the substance and temperature control at 20° C.
# Preparation of solution E 1%/cm: 100 mg of the substance or formulation to be tested were weighed into a graduated flask and filled up to 100 ml with the corresponding solvent. A clear solution was obtained. If necessary, an ultrasonic bath can be used to improve solubility. For further dilution the sample was adjusted to a temperature of 20° C. 1 ml of the dissolved solution was added into a second graduated 100 ml flask, filled up to 100 ml at a temperature of 20° C. The final concentration of the thus obtained solution was 0.001%. (E1%/cm). This solution was used for absorbance measurement and irradiation. Said solution was transferred to a 10 mm quartz cuvette with closure.
# Irradiation: Irradiation of the sample was performed for […] with 700 W/m^2 emitted by an Atlas SUN Test CPS. This corresponds to an amount of energy of 5 MED (minimal erythema) dose (=1,250 J/m^2). At the same time, the temperature of the devise was adjusted to max 30° C. in order to avoid strong heating of the sample.
# Measurement: The absorbance measurement of the sample in the quartz cuvette with closure (10 mm) was carried out in a wavelength range of 200 nm to 700 nm with a Lambda 25 UV spectrometer. A blank absorbance test was carried out with the corresponding solvent for preparing the samples as described above. The absorbance measurement of the samples was carried out before (pre-irradiation) and after irradiation emitted by a Atlas SUN Test CPS (see above).
# The amplitude of the absorbance curve reflects the degree of protection. The higher the amplitude of the curve, the greater the absorbance and the more protection provided at that wavelength. Within the UVB portion of the spectrum (290 nm to 320 nm) this amplitude correlates with the SPF. The greater the breadth of the curve, the more protection provided against longer wave UV ration. In other words, the greater the breadth of the curve, the broader the spectrum of sun protection provided. […]
# [1] = after irradiation with 5 MED (1,250 J/m^2)
compound,measurement,setting,value
"COc1ccc(C(=O)CC(=O)c2ccc(C(C)(C)C)cc2)cc1 [Butyl Methoxydibenzoylmethane, Butyl-Methoxydibenzoylmethane or Avobenzone]",Absorbance loss at 358 nm,"E1%/cm solution (0.001%), after irradiation with 5 MED (1,250 J/m^2), read at 358 nm",7.05%
same,Photostability result in words,[1],photostable in this kind of medium
same,"Lost (%) after irradiation with 5 MED (1,250 J/m^2)",,7.05%
same,E max (nm),,358 nm
same,"loss of the photo-unstable UV-filter (absorbance loss), UV-filter alone versus in combination with the MAA compound",,7.05%
"CC1(C)CC(NCC(=O)O)=C/C(=N/c2ccc(S(=O)(=O)O)cc2)C1 [MAA-28, 2-[(5,5-dimethyl-3-(4-sulfo-phenyl)imino-cyclohexen-1-yl)amino]acetic acid]",Absorbance loss at 335 nm,"E1%/cm solution (0.001%), after irradiation with 5 MED (1,250 J/m^2), read at 335 nm",15.03%
same,Photostability result in words,[1],A photostable molecule
"CC1(C)CC(NCC(=O)O)=C/C(=N/c2ccccc2)C1 [MAA-20, 2-[(5,5-dimethyl-3-phenyl-imino-cyclohexen-1-yl)-amino]acetic acid]",Photostability result in words,[1],Very photostable molecule
"CCOC(=O)CNC1=C/C(=N/c2ccccc2)CC(C)(C)C1 [MAA-1, ethyl 2-[[5,5-dimethyl-3-phen-ylimino-cyclohexen-1-yl]amino] acetate]",Absorbance loss at 321 nm,"E1%/cm solution (0.001%), after irradiation with 5 MED (1,250 J/m^2), read at 321 nm",0.53%
same,Photostability result in words,[1],Very photostable molecule
same,photo-stabilizing effect in words,,pronounced photo-stabilizing effect
"COc1ccc(/N=C2\CC(C)(C)CC3=C2SCC(C(=O)O)N3)cc1OC (stereo not drawn) [MAA-13, 8-((3,4-dimethoyxphenyl)-imino)-6,6-dimethyl-3,4,5,6,7,8-hexahydro-2-H-benzol[b][1,4]thiazine-3-car-boxylic acid]",Absorbance loss at 364 nm,"E1%/cm solution (0.001%), after irradiation with 5 MED (1,250 J/m^2), read at 364 nm",5.13%
same,Photostability result in words,[1],Very photostable molecule
same,photo-stabilizing effect in words,,pronounced photo-stabilizing effect
"CCCCC(CC)COC(=O)C=Cc1ccc(OC)cc1 (stereo not drawn) [Ethylhexyl Methoxycinnamate, Ethylhexyl-Methoxycinnamate]",Photostability result in words,[1],Not photostable
"COc1ccc(/C=C/C(=O)OCCC(C)C)cc1 [Isoamyl p-Methoxycinnamate, Isoamyl-p-Methoxycinnamate]",Absorbance loss at 310 nm,"E1%/cm solution (0.001%), after irradiation with 5 MED (1,250 J/m^2), read at 310 nm",30.5%
same,Photostability result in words,[1],Not photostable
same,"Lost (%) after irradiation with 5 MED (1,250 J/m^2)",,30.50%
same,E max (nm),,310 nm
same,"loss of the photo-unstable UV-filter (absorbance loss), UV-filter alone versus in combination with the MAA compound",,30.50%
same,Critical Wavelength (nm),wavelength at which 90% of the total area under the UV protection curve (280-400 nm) is reached,324 nm
